Data: patent US12410124B2 (priority 2019, dated 2025)

What was measured:
Type in all cases: in vivo
substantia nigra GFAP = experiment: Number of substantia nigra astrocytes with GFAP positive expression in MPTP Parkinson's disease model mouse (immunohistochemistry); details: for Positive cell number (astrocytes with GFAP positive expression): substantia nigra, MPTP Parkinson's disease model mouse, immunohistochemistry
Method: (§1) Neurotoxins can be used to establish PD animal models. Currently, 1-methyl-4-phenyl-1,2,3,6-tetrahydropyridine (MPTP) is the sole synthetic toxin which is recognized to induce PD symptoms in human and non-human primates and in mice. Using MPTP subacute modeling method, C57BL/6J male mice were intraperitoneally injected with MPTP 30 mg/kg, once a day for 5 consecutive days. The experiment animals were divided into blank control group, MPTP model group, and compound treatment group. For the […] compound treatment group, the compound was administrated by gavage for 21 consecutive days after the completion of modeling; for the MPTP model group, the normal saline was administrated by gavage for 21 consecutive days after the completion of modeling; and for the blank control group, the normal saline was first intraperitoneally injected for 5 days, and then administrated by gavage for 21 days.
(§2) Neuron-glial cell network homeostasis disorder is an important factor for the selective and progressive death of substantia nigra dopaminergic neurons in PD. In the neurotoxic effect of MPTP, the excessive activations of microglial cells and astrocytes produce a variety of inflammatory cytokines and reactive oxygen species (ROS). These inflammatory factors and ROS amplify their respective toxicities and mediate malignant feedback loop, causing a cascade inflammation response and aggravating the pathological process of PD. CD11b and GFAP are the marker proteins for activations of microglial cells and astrocytes, respectively. Therefore, the effect of the target compounds on the activations of the microglial cells and astrocytes in the substantia nigra, hippocampus, and midbrain areas of MPTP-induced PD mice can be investigated, to explore the mechanism of the anti-PD effect of the target compounds by inhibiting the neuroinflammation.
Half of experiment mice in each group were taken to separate the midbrain after perfusion and fixation. The tissue was trimmed, and the substantia nigra area was taken to prepare paraffin sections. The GFAP immunohistochemical staining was performed for the statistics of the change in the number of astrocytes with GFAP positive expression. The experiment included blank control group, MPTP model group, positive control group (caffeic acid phenethyl ester, CAPE), prototype control group (styryl sulfone compounds 3B, 3C, 3D, and 3G, whose structures are shown as above), and target compound group.

GCLC = experiment: Midbrain GCLC expression in MPTP Parkinson's disease model mouse (western blot); details: for Expression (GCLC/GAPDH): midbrain, MPTP Parkinson's disease model mouse, western blot
Method: as §1
Oxidative stress is an important pathogenic mechanism of PD. Dopaminergic neurons are more sensitive to oxidative stress and are more susceptible to oxidative stress damage. Glutathione (GSH) is an important antioxidant substance in the cell, and glutamate cysteine ligase (GCL) is the rate-limiting enzyme for GSH synthesis, which is composed of catalytic subunit (GCLC) and regulatory subunit (GCLM). The increase of GCLC expression can promote the synthesis of GSH and enhance the ability of tissue cells against oxidative stress. GCL, a phase II enzyme, plays an important protective role by catalyzing the conversion of free radicals into non-toxic products and increasing their water solubility to facilitate the elimination of free radicals, and maintain the redox balance in the body. It plays an important role in the process of protecting cells against oxidative stress damage. The activation of p38 protein phosphorylation has a negative regulatory effect on phase II enzymes. […] Using GCLC as an indicator, the inhibitory effect of the target compounds on MPTP-induced oxidative stress damage in PD mice can be investigated.
GCLC is expressed in astrocytes, microglial cells, and neurons. The total proteins of the midbrain tissue of mice in each experiment group were extracted, to determine the expression of phase II enzyme GCLC in the midbrain of mice by western blot using GAPDH as the internal reference. The experiment included blank control group, MPTP model group, positive control group (caffeic acid phenethyl ester, CAPE), prototype control group (styryl sulfone compounds 3B, 3C, 3D), and 3G, whose structures are shown as above), and target compound group.

midbrain CD11b = experiment: Midbrain CD11b protein expression in MPTP Parkinson's disease model mouse (western-blotting); details: for Expression (CD11b/GAPDH): midbrain, MPTP Parkinson's disease model mouse, western-blotting
Method: as §1, §2
[…] The experiment included blank control group, MPTP model group, positive control group (caffeic acid phenethyl ester, CAPE), prototype control group (styryl sulfone compounds 3B, 3C, 3D), and 3G, whose structures are shown as above), and target compound group.

substantia nigra TH = experiment: Substantia nigra TH expression in MPTP Parkinson's disease model mouse (immunofluorescence); details: percentage of mean intensity of blank control group, gavage 21 days after MPTP modeling
Method: as §1
(§3) The main cause of PD lies in the pathological changes in the substantia nigra-striatum projection system of the brain and the progressive degeneration and loss of dopaminergic neurons. Tyrosine hydroxylase (TH) is the first enzyme in the biosynthesis of catecholamine neurotransmitters, as well as the first rate-limiting enzyme in the dopamine synthesis. It plays an important role in the synthesis and metabolism of the neurotransmitter DA. The TH in PD animal models and patients has a wide range of abnormal changes, from the gene expression to the enzyme protein content and enzyme activity. The detection of the TH expression in the midbrain and substantia nigra of PD model mice can be used to evaluate the neuroprotective activity of the compound.
Half of experiment mice in each group were taken to separate the midbrain after perfusion and fixation. The tissue was trimmed, and the substantia nigra-striatum area was taken to prepare paraffin sections. The TH immunofluorescence staining was performed in the brain sections of mice in each group. […] The experiment included blank control group, MPTP model group, positive control group (caffeic acid phenethyl ester, CAPE), prototype control group (styryl sulfone compounds 3B, 3C, 3D, and 3G, whose structures are shown as above), and target compound group.

substantia nigra p-α-s = experiment: Substantia nigra p-α-s protein expression in MPTP Parkinson's disease model mouse (immunofluorescence); details: percentage of mean intensity of blank control group, gavage 21 days after MPTP modeling
Method: as §1
Alpha-synuclein is an “unfolded protein” in its natural state. It exists in a monomeric form, and participates in the physiological functions such as the release of neurotransmitters, the establishment of synaptic junctions, and the regulation of synaptic plasticity. Under pathological conditions, more than 90% of alpha-synuclein is phosphorylated at serine of position 129 and converted into phosphorylated alpha-synuclein (p-α-s), thereby forming Lewy bodies. The formation of Lewy bodies is one of the main pathological manifestations and pathological mechanisms for Parkinson's disease, and plays an important role in the formation and development of PD. The detection of the p-α-s expression in the midbrain and substantia nigra of PD model mice can evaluate the neuroprotective activity of the compound.
Half of experiment mice in each group were taken to separate the midbrain after perfusion and fixation. The tissue was trimmed, and the substantia nigra-striatum area was taken to prepare paraffin sections. The p-α-s immunofluorescence staining was performed in the brain sections of mice in each group. […] The experiment included blank control group, MPTP model group, positive control group (caffeic acid phenethyl ester, CAPE), prototype control group (styryl sulfone compounds 3B, 3C, 3D, and 3G, whose structures are shown as above), and target compound group.

midbrain TH = experiment: Midbrain TH expression in MPTP Parkinson's disease model mouse (western-blotting); details: midbrain total protein, GAPDH internal reference, gavage 21 days after MPTP modeling
Method: as §1, §3
Half of experiment mice in each group were taken to extract the total midbrain protein, and the change in the midbrain TH was determined by western-blotting using GAPDH as the internal reference. The experiment included blank control group, MPTP model group, positive control group (caffeic acid phenethyl ester, CAPE), prototype control group (styryl sulfone compounds 3B, 3C, 3D, and 3G, whose structures are shown as above), and target compound group.

Row | SMILES | Positive cell number (astrocytes with GFAP positive expression) (substantia nigra GFAP) | Expression (GCLC/GAPDH) (GCLC) | Expression (CD11b/GAPDH) (midbrain CD11b) | Expression (Immunofluorescence intensity %) (substantia nigra TH) | Expression (Immunofluorescence intensity %) (substantia nigra p-α-s) | Expression (TH/GAPDH) (midbrain TH) | number of substantia nigra astrocytes with GFAP positive expression compared with the styryl sulfone prototype compounds (substantia nigra GFAP) | midbrain GCLC expression compared with the styryl sulfone prototype compounds (GCLC) | midbrain CD11b protein expression compared with the styryl sulfone prototype compounds (midbrain CD11b)
1 | O=S(=O)(/C=C/c1ccc(O)c(O)c1)Cc1ccc(C(F)(F)F)cc1 [Compound 3B, (E)-4-{2-[(4-trifluoromethylphenyl)mesyl]ethenyl}benzene-1,2-diol, reference compound] | 121 ± 10 | 0.33 ± 0.04 | 1.31 ± 0.10 | 83.18 ± 5.87% | 236.55 ± 13.78% | 0.53 ± 0.03 |  |  | 
2 | O=S(=O)(/C=C/c1ccc(O)c(O)c1)CCCc1ccccc1 [Compound 3C, (E)-4-{2-[(3-phenylpropyl)sulfonyl]ethenyl}benzene-1,2-diol, reference compound] | 121 ± 13 | 0.34 ± 0.05 | 1.02 ± 0.13 | 74.63 ± 9.15% | 132.98 ± 7.78% | 0.63 ± 0.03 |  |  | 
3 | O=S(=O)(/C=C/c1ccc(O)c(O)c1)Cc1ccc(Cl)cc1 [Compound 3D, (E)-4-{2-[(4-chlorophenyl)mesyl]ethenyl}benzene-1,2-diol, reference compound] | 110 ± 9 | 0.53 ± 0.04 | 1.30 ± 0.10 | 87.38 ± 4.01% | 104.89 ± 7.56% | 0.93 ± 0.06 |  |  | 
4 | CC(C)(C)c1ccc(CS(=O)(=O)/C=C/c2ccc(O)c(O)c2)cc1 [Compound 3G, (E)-4-{2-[(4-t-butylphenyl)mesyl]ethenyl}benzene-1,2-diol, reference compound] | 130 ± 6 | 0.57 ± 0.09 | 0.67 ± 0.12 | 76.08 ± 7.08% | 203.66 ± 8.37% | 0.45 ± 0.05 |  |  | 
5 | CC(C)N(c1ccc(CCS(=O)(=O)/C=C/c2ccc(OC(=O)N(C)c3ccc(I)cc3)c(OCCOCc3ccccc3)c2)cc1)C(C)C [Compound A1-3, (E)-2-(2-benzyloxyethoxy)-4-{2-[4-(N,N-diisopropylamino)phenylethylsulfonyl]ethenyl}phenyl-N-(4-iodophenyl)-N-methylcarbamate] | 105 ± 6 | 0.84 ± 0.04 | 1.12 ± 0.06 | 89.68 ± 5.69% | 134.19 ± 11.28% | 0.93 ± 0.07 |  |  | 
6 | CCN(CC)C(=O)Oc1ccc(/C=C/S(=O)(=O)Cc2ccc(C(F)(F)F)cc2)cc1OC(=O)N(CC)CC [Compound B1-1, (E)-4-{2-[(4-trifluoromethylphenyl)mesyl]ethenyl}-1,2-phenylenebis(diethylcarbamate)] | 88 ± 5 | 1.17 ± 0.06 | 0.41 ± 0.05 | 95.86 ± 4.43% | 82.54 ± 9.34% | 0.92 ± 0.02 | significantly lower | significantly higher | equivalent or lower
7 | CCN(CC)C(=O)Oc1ccc(/C=C/S(=O)(=O)CCCc2ccccc2)cc1OC(=O)N(CC)CC [Compound C1-1, (E)-4-[2-(3-phenylpropylsulfonyl)ethenyl]-1,2-phenylenebis(diethylcarbamate)] | 56 ± 4 | 1.34 ± 0.08 | 1.11 ± 0.08 | 96.58 ± 6.15% | 123.59 ± 8.25% | 1.20 ± 0.06 | significantly lower | significantly higher | equivalent or lower
